Reference: ChEMBL document CHEMBL1629460, “Image-based high-throughput drug screening targeting the intracellular stage of Trypanosoma cruzi, the agent of Chagas' disease” (Antimicrob Agents Chemother, 2010)

Tests used:
[1] = Selectivity window, ratio of EC50 for BESM cells to EC50 for Trypanosoma cruzi amastigotes infected in BESM cells; design: reference not given here
[2] = tested on: Trypanosoma cruzi; assay: Antitrypanosomal activity against Trypanosoma cruzi amastigotes infected in BESM cells measured after 88 hrs postinfection by HTS assay; format: functional, organism-based
[3] = Cytotoxicity against BESM cells after 88 hrs by HTS assay; format: ADME, cell-based; settings: Bos taurus

| Structure (SMILES) | Ratio EC50 [1] | EC50 [2] [µM] | EC50 [3] [µM] |
| --- | --- | --- | --- |
| COc1cc(N)[nH]c2nc(-c3ccc(F)cc3)c(-c3ccncc3)c1-2 | >10 | 5 | > 50 |
| Cc1c(C)c2c(c(C)c1O)CCC(C)(CN1CCN(c3cc(N4CCCC4)nc(N4CCCC4)n3)CC1)O2 (stereo not drawn) | >2.9 | 17 | > 50 |
| CCCCCCCCCCCCC/C=C/[C@@H](O)[C@H](CO)NC(=O)CCCCCCC | 0.8 | 13 | 11 |
| Cc1c(O)cccc1C(=O)N[C@@H](CSc1ccccc1)[C@H](O)CN1C[C@H]2CCCC[C@H]2C[C@H]1C(=O)NC(C)(C)C | 2.7 | 12 | 32 |
| O=C(Nc1ccc(Cl)c(Cl)c1)c1cc(Cl)cc(Cl)c1O [3,3',4',5-TETRACHLOROSALICYLANILIDE] | 3.3 | 8 | 26 |
| CC[C@H](C)[C@H]1O[C@]2(C=C[C@@H]1C)C[C@@H]1C[C@@H](C/C=C(\C)[C@@H](O[C@H]3C[C@H](OC)[C@@H](O[C@H]4C[C@H](OC)[C@@H](O)[C@H](C)O4)[C@H](C)O3)[C@@H](C)/C=C/C=C3\CO[C@@H]4[C@H](O)C(C)=C[C@@H](C(=O)O1)[C@]34O)O2.CO[C@H]1C[C@H](O[C@H]2[C@H](C)O[C@@H](O[C@@H]3/C(C)=C/C[C@@H]4C[C@@H](C[C@]5(C=C[C@H](C)[C@@H](C(C)C)O5)O4)OC(=O)[C@@H]4C=C(C)[C@@H](O)[C@H]5OC/C(=C\C=C\[C@@H]3C)[C@]54O)C[C@@H]2OC)O[C@@H](C)[C@@H]1O [ABAMECTIN] | 3 | 4 | 12 |
| Cc1ccc(/N=C/N(C)/C=N/c2ccc(C)cc2C)c(C)c1 [AMITRAZ] | 2.1 | 16 | 33 |
| CN(C)CCC=C1c2ccccc2CCc2ccccc21 [AMITRIPTYLINE] | 1.9 | 12 | 23 |
| CN1CCCC(n2nc(Cc3ccc(Cl)cc3)c3ccccc3c2=O)CC1 (stereo not drawn) [AZELASTINE] | 49 | 1 | 49 |
| CN1[C@@H]2CC[C@H]1C[C@@H](OC(c1ccccc1)c1ccccc1)C2 [BENZTROPINE] | 2.7 | 17 | 46 |
| c1ccc(Cn2ccnc2)cc1 [BENZYLIMIDAZOLE] | >1.4 | 35 | > 50 |
| Cc1cc2c(OCC(CNC(C)(C)C)OC(=O)c3ccccc3)cccc2[nH]1 (stereo not drawn) [BOPINDOLOL] | >1.3 | 40 | > 50 |
| COc1ccccc1OCCNCC(O)COc1cccc2[nH]c3ccccc3c12 (stereo not drawn) [CARVEDILOL] | 3.9 | 8 | 31 |
| CCC(=O)O[C@]1(C(=O)CCl)[C@@H](C)C[C@H]2[C@@H]3CCC4=CC(=O)C=C[C@]4(C)[C@@]3(F)[C@@H](O)C[C@@]21C [CLOBETASOL PROPIONATE] | 1.6 | 25 | 41 |
| CN(C)CCCN1c2ccccc2CCc2ccc(Cl)cc21 [CLOMIPRAMINE] | >6.3 | 8 | > 50 |
| C[C@@H]1C[C@@H]([C@H](O)CC2CC(=O)NC(=O)C2)C(=O)[C@@H](C)C1 [CYCLOHEXIMIDE] | >125 | < 0.4 | > 50 |
| CC(=O)O[C@]1(C(C)=O)CC[C@H]2[C@@H]3C=C(Cl)C4=CC(=O)[C@@H]5C[C@@H]5[C@]4(C)[C@H]3CC[C@@]21C [CYPROTERONE ACETATE] | >1.6 | 32 | > 50 |
| CC(C)[C@@]1(NC(=O)[C@@H]2C[C@@H]3c4cccc5[nH]cc(c45)C[C@H]3N(C)C2)O[C@@]2(O)[C@@H]3CCCN3C(=O)[C@H](Cc3ccccc3)N2C1=O.CS(=O)(=O)O [DIHYDROERGOCRISTINE MESYLATE] | 9.4 | 5 | 47 |
| CC(=O)O[C@@]12CO[C@@H]1C[C@H](O)[C@@]1(C)C(=O)[C@H](O)C3=C(C)[C@@H](OC(=O)[C@H](O)[C@@H](NC(=O)OC(C)(C)C)c4ccccc4)C[C@@](O)([C@@H](OC(=O)c4ccccc4)[C@H]21)C3(C)C.O.O.O [DOCETAXEL] | >56 | < 0.8 | 44 |
| COc1cc2nc(N3CCN(C(=O)C4COc5ccccc5O4)CC3)nc(N)c2cc1OC (stereo not drawn) [DOXAZOSIN] | 2.3 | 12 | 27 |
| CCCCOc1ccc(C(=O)CCN2CCCCC2)cc1.Cl [DYCLONINE HYDROCHLORIDE] | 2.4 | 15 | 36 |
| CC(C)[C@H]1C(=O)N2CCC[C@H]2[C@]2(O)O[C@](NC(=O)[C@@H]3C=C4c5cccc6[nH]cc(c56)C[C@H]4N(C)C3)(C(C)C)C(=O)N12 [ERGOCORNINE] | 2.4 | 18 | 43 |
| CNCCC(Oc1ccc(C(F)(F)F)cc1)c1ccccc1 (stereo not drawn) [FLUOXETINE] | 2.3 | 7 | 16 |
| OCCN1CCN(CCCN2c3ccccc3Sc3ccc(C(F)(F)F)cc32)CC1 [FLUPHENAZINE] | 5.3 | 4 | 21 |
| O=C1OCCN1/N=C/c1ccc([N+](=O)[O-])o1 [FURAZOLIDONE] | >125 | < 0.4 | > 50 |
| C[C@H]([C@](O)(Cn1cncn1)c1ccc(F)cc1F)S(C)(=O)=O [GENACONAZOLE] | >2.8 | 18 | > 50 |

| Structure (SMILES) | Ratio EC50 [1] | EC50 [2] [µM] | EC50 [3] [µM] |
| --- | --- | --- | --- |
| O=C(CCCN1CCC(O)(c2ccc(Cl)cc2)CC1)c1ccc(F)cc1 [HALOPERIDOL] | 4.7 | 7 | 33 |
| CN1CCCN(C(c2ccccc2)c2ccc(Cl)cc2)CC1 (stereo not drawn) [HOMOCHLORCYCLIZINE] | 1.1 | 12 | 13 |
| Cc1ccc(NC(=O)c2ccc(CN3CCN(C)CC3)cc2)cc1Nc1nccc(-c2cccnc2)n1 [IMATINIB] | 3.6 | 9 | 32 |
| C=C(C)[C@H]1CN[C@H](C(=O)O)[C@H]1CC(=O)O [KAINIC ACID] | 4.3 | 3 | 13 |
| COc1ccc(CN2CCN(C(c3ccc(F)cc3)c3ccc(F)cc3)CC2)c(OC)c1OC [LOMERIZINE] | 2.4 | 9 | 22 |
| CN(C)C(=O)C(CCN1CCC(O)(c2ccc(Cl)cc2)CC1)(c1ccccc1)c1ccccc1 [LOPERAMIDE] | 4 | 3 | 12 |
| CCOC(=O)N1CCC(=C2c3ccc(Cl)cc3CCc3cccnc32)CC1 [LORATADINE] | 1.9 | 9 | 17 |
| CN1C[C@H](CNC(=O)OCc2ccccc2)C[C@@H]2c3cccc4c3c(cn4C)C[C@H]21 [METERGOLINE] | 4.5 | 4 | 18 |
| COc1c(C)c2c(c(O)c1C/C=C(\C)CCC(=O)OCCN1CCOCC1)C(=O)OC2 [MYCOPHENOLATE MOFETIL] | >7.1 | 7 | > 50 |
| CCN(CC)CCOCCC1=CCC2CC1C2(C)C (stereo not drawn) [MYRTECAINE] | 1.7 | 14 | 24 |
| COc1ccccc1N1CCN(CC(O)COc2cccc3ccccc23)CC1 (stereo not drawn) [NAFTOPIDIL] | 1.6 | 11 | 18 |
| C=CCN1CC[C@]23c4c5ccc(O)c4O[C@H]2/C(=N/N=C2\CC[C@@]4(O)[C@H]6Cc7ccc(O)c8c7[C@@]4(CCN6CC=C)[C@H]2O8)CC[C@@]3(O)[C@H]1C5 [NALOXONAZINE] | 0.9 | 17 | 16 |
| CCc1nn(CCCN2CCN(c3cccc(Cl)c3)CC2)c(=O)n1CCOc1ccccc1 [NEFAZODONE] | 1.9 | 8 | 15 |
| O=C(N/N=C/c1ccc([N+](=O)[O-])o1)c1cc([N+](=O)[O-])cc([N+](=O)[O-])c1O [NIFURSOL] | >3.3 | 15 | > 50 |
| NC(=O)N/N=C/c1ccc([N+](=O)[O-])o1 [NITROFURAZONE] | >6.3 | 8 | > 50 |
| C#C[C@]1(OC(C)=O)CC[C@H]2[C@@H]3CCC4=CC(=O)CC[C@@H]4[C@H]3CC[C@@]21C [NORETHINDRONE ACETATE] | 1.6 | 17 | 28 |
| OCCN1CCN(CCCN2c3ccccc3Sc3ccc(Cl)cc32)CC1 [PERPHENAZINE] | 2.6 | 5 | 13 |
| c1ccc2c(c1)Nc1ccccc1S2 [PHENOTHIAZINE] | 4.3 | 6 | 26 |
| COc1cc2nc(N3CCN(C(=O)c4ccco4)CC3)nc(N)c2cc1OC [PRAZOSIN] | 1.3 | 12 | 16 |
| CN(C)CCCN1c2ccccc2Sc2ccccc21 [PROMAZINE] | 2.5 | 13 | 33 |
| O=C(c1ccc(OCCN2CCCCC2)cc1)c1c(-c2ccc(O)cc2)sc2cc(O)ccc12 [RALOXIFENE] | 2.2 | 10 | 22 |
| CC(C)CC(N(C)C)C1(c2ccc(Cl)cc2)CCC1 (stereo not drawn) [SIBUTRAMINE] | 1.3 | 8 | 10 |
| Nc1c2c(nc3ccccc13)CCCC2 [TACRINE] | >2.1 | 24 | > 50 |
| CC(C)N1CCN(c2ccc(OCC3COC(Cn4cncn4)(c4ccc(Cl)cc4Cl)O3)cc2)CC1 (stereo not drawn) [TERCONAZOLE] | >60 | < 0.4 | 24 |
| C[C@@H]1C[C@H]2[C@@H]3CCC4=CC(=O)C=C[C@]4(C)C3=CC[C@]2(C)[C@H]1C(=O)CN1CCN(c2cc(N3CCCC3)nc(N3CCCC3)n2)CC1 [TIRILAZAD] | >1.8 | 28 | > 50 |
